{"source": "PubChem BioAssay AID1845219", "about": "(Molecular Pharmacology Branch, DTP, NCI, 2023)", "tested_on": "SYO-1 tumor spheroids, viability % test/control", "test": "Anticancer human tumor SYO-1 cell line growth inhibition;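 on all read-outs here: spheroids exposed to agents for 7 days before viability read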;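 on viability, T/C: 100% = DMSO vehicle control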", "conditions": "spheroids with HUVEC and MSC; for viability, T/C: stronger effect = lower value", "description": "Multicellular complex tumor spheroid response to DNA repair inhibitors in combination with DNA-damaging drugs\nThis study explores the anticancer activities of DNA-damaging drugs and inhibitors of DNA damage repair, both as single agents and in combinations. Complex tumor spheroids comprised of malignant cells, endothelial cells and mesenchymal stem cells served as an in vitro model for human solid tumors. This model system incorporates physiologically relevant features and patient-derived or established malignant cell lines with clinically relevant genetic alterations from many tumor types. Twenty-six patient-derived or established malignant cell lines were evaluated representing sarcoma, melanoma, small cell lung cancer (SCLC), non-small cell lung cancer (NSCLC), as well as bladder, ovarian and pancreatic cancers. The concentration ranges selected for each drug and investigational agent were based upon clinically achievable concentrations if the clinical Cmax of the agent was known.\nCompounds. The drugs and compounds olaparib (NSC753686), talazoparib (NSC767125), berzosertib (NSC777718), elimusertib (NSC800525), nedisertib (NSC802822), VX-984 (NSC792969), AZD-1390 (NSC803789), temozolomide (NSC362856), topotecan (NSC609699), trabectedin (NSC813783), staurosporine (NSC755774), and gemcitabine (NSC613327) were obtained from the National Cancer Institute (NCI) Developmental Therapeutics Program Chemical Repository. The FDA-approved anticancer drug set is available from the Developmental Therapeutics Program at https://dtp.cancer.gov/organization/dscb/obtaining/available_plates.htm. […] The stock solutions were prepared in dimethyl sulfoxide (DMSO, Sigma-Aldrich, St. Louis, MO, cat. D2650) at 400-fold the tested concentration and stored at -70 degrees C. Prior to their use, the stock solutions were diluted in fresh medium and the final DMSO concentration in the assay was 0.25% (v/v). All drugs and investigational agents were tested over a range starting from a high concentration at or near the clinical Cmax and decreasing in half-log increments. If the clinical Cmax for an agent had not been determined, the highest concentration tested was 10 microM.\nCell Lines. The patient-derived cancer cell (PDC) lines: 156681-154-R-J1-PDC, 283228-195-R-J1-PDC, 287954-098-R-J1-PDC, 292921-168-R-J2-PDC, 349418-098-R-PDC, 425362-245-T-J1-PDC, 556581-035-R-J1-PDC, and BL0293-F563-PDC were received from the NCI Patient-Derived Models Repository (PDMR, https://pdmr.cancer.gov). The established cell lines HS-SY-2 (RRID:CVCL_8719), MPNST, and SYO-1 (RRID:CVCL_7146) were obtained from the Sloan Kettering Institute. The alveolar soft parts sarcoma cell line ASPS-1 (RRID:CVCL_S738) was established at the NCI and grown from internal seed stocks. The following established cell lines were purchased from the American Type Culture Collection (ATCC, Manassas, VA): G-401 (ATCC, cat. CRL-1441, RRID:CVCL_0270), SW982 (ATCC, cat. HTB-93, RRID:CVCL_1734), VA-ES-BJ (ATCC, cat. CRL-2138, RRID:CVCL_1785), NCI-H719 (ATCC, cat. CRL-5837, RRID:CVCL_1582), NCI-H196 (ATCC, cat. CRL-5823, RRID:CVCL_1509), NCI-H841 (ATCC, cat. CRL-5845, RRID:CVCL_1595), NCI-H1618 (ATCC, cat. CRL-5879, RRID:CVCL_1480), NCI-H1876 (ATCC, cat. CRL-5902, RRID:CVCL_1503), DMS 114 (ATCC, cat. CRL-2066; RRID:CVCL_1174), NCI-H211 (ATCC, cat. CRL-5824; RRID:CVCL_1529), and SW 1271 (ATCC, cat. CRL-2177, RRID:CVCL_1716). The small cell lung cancer cell line COR-L88 was purchased from Sigma-Aldrich (cat. 92031917-1VL, RRID:CVCL_1141). The non-small cell lung cancer cell lines NCI-H226 (RRID:CVCL_1544) and NCI-H322M (RRID:CVCL_1557) were established at the NCI and grown from internal seed stocks. Pooled donor human umbilical vein endothelial cells (HUVEC, Lonza, cat. CC-2519) and human mesenchymal stem cells (hMSC, Lonza, cat. PT-2501) were purchased from Lonza (Walkersville, MD).\nCell Culture. All cells were maintained in an incubator at 37 degrees C and 5% CO2 with 95% humidity. […]", "note": "Values joined by “and” are separate entries in the source; they are usually repeats but may differ in a detail not shown here. Equal values may be shown once.", "data": [{"smiles": "Cc1sc2c(c1C)C(c1ccc(Cl)cc1)=NC(CC(=O)Nc1ccc(O)cc1)c1nnc(C)n1-2", "note": "(configuration not stated)", "values": [{"measurement": "viability, T/C", "setting": "compound 0.00949 µM", "value": "93.8% and 91.9% and 91.3%"}, {"measurement": "viability, T/C", "setting": "compound 0.03 µM", "value": "90.7% and 90.8% and 85.5%"}, {"measurement": "viability, T/C", "setting": "compound 0.0949 µM", "value": "31.8% and 49.4% and 54.7%"}, {"measurement": "viability, T/C", "setting": "compound 0.3 µM", "value": "1.04% and 3.66% and 1.07%"}, {"measurement": "viability, T/C", "setting": "compound 0.949 µM", "value": "0.73% and 0.9% and 0.49%"}, {"measurement": "viability, T/C", "setting": "compound 3 µM", "value": "0.63% and 0.72% and 0.4%"}, {"measurement": "IC50", "setting": "curve of compound", "value": "66.5 nM and 93.4 nM and 105 nM"}]}, {"smiles": "Cn1ncnc1[C@H]1c2n[nH]c(=O)c3cc(F)cc(c23)N[C@@H]1c1ccc(F)cc1", "note": "+ Cn1nnc2c(C(N)=O)ncn2c1=O", "values": [{"measurement": "IC50", "setting": "curve of first compound, second compound 1 µM", "value": 16.3, "unit": "nM"}, {"measurement": "IC50", "setting": "curve of first compound, second compound 3.16 µM", "value": 12.8, "unit": "nM"}, {"measurement": "IC50", "setting": "curve of first compound, second compound 10 µM", "value": "< 9.49", "unit": "nM"}, {"measurement": "IC50", "setting": "curve of first compound, second compound 31.6 µM", "value": "< 9.49", "unit": "nM"}, {"measurement": "IC50", "setting": "curve of first compound, second compound 100 µM", "value": "< 9.49", "unit": "nM"}, {"measurement": "viability, T/C", "setting": "second compound 1 µM, first compound 0.00949 µM", "value": 79.6, "unit": "%"}, {"measurement": "viability, T/C", "setting": "second compound 1 µM, first compound 0.03 µM", "value": 16.8, "unit": "%"}, {"measurement": "viability, T/C", "setting": "second compound 1 µM, first compound 0.0949 µM", "value": 4.52, "unit": "%"}, {"measurement": "viability, T/C", "setting": "second compound 1 µM, first compound 0.3 µM", "value": 2.53, "unit": "%"}, {"measurement": "viability, T/C", "setting": "second compound 1 µM, first compound 0.949 µM", "value": 1.69, "unit": "%"}, {"measurement": "viability, T/C", "setting": "second compound 1 µM, first compound 3 µM", "value": 1.94, "unit": "%"}, {"measurement": "viability, T/C", "setting": "second compound 3.16 µM, first compound 0.00949 µM", "value": 65, "unit": "%"}, {"measurement": "viability, T/C", "setting": "second compound 3.16 µM, first compound 0.03 µM", "value": 7.02, "unit": "%"}, {"measurement": "viability, T/C", "setting": "second compound 3.16 µM, first compound 0.0949 µM", "value": 2.83, "unit": "%"}, {"measurement": "viability, T/C", "setting": "second compound 3.16 µM, first compound 0.3 µM", "value": 2.28, "unit": "%"}, {"measurement": "viability, T/C", "setting": "second compound 3.16 µM, first compound 0.949 µM", "value": 2.09, "unit": "%"}, {"measurement": "viability, T/C", "setting": "second compound 3.16 µM, first compound 3 µM", "value": 1.5, "unit": "%"}, {"measurement": "viability, T/C", "setting": "second compound 10 µM, first compound 0.00949 µM", "value": 4.61, "unit": "%"}, {"measurement": "viability, T/C", "setting": "second compound 10 µM, first compound 0.03 µM", "value": 2.33, "unit": "%"}, {"measurement": "viability, T/C", "setting": "second compound 10 µM, first compound 0.0949 µM", "value": 2.35, "unit": "%"}, {"measurement": "viability, T/C", "setting": "second compound 10 µM, first compound 0.3 µM", "value": 1.79, "unit": "%"}, {"measurement": "viability, T/C", "setting": "second compound 10 µM, first compound 0.949 µM", "value": 1.63, "unit": "%"}, {"measurement": "viability, T/C", "setting": "second compound 10 µM, first compound 3 µM", "value": 2.1, "unit": "%"}, {"measurement": "viability, T/C", "setting": "second compound 31.6 µM, first compound 0.00949 µM", "value": 2.52, "unit": "%"}, {"measurement": "viability, T/C", "setting": "second compound 31.6 µM, first compound 0.03 µM", "value": 2.5, "unit": "%"}, {"measurement": "viability, T/C", "setting": "second compound 31.6 µM, first compound 0.0949 µM", "value": 2.35, "unit": "%"}, {"measurement": "viability, T/C", "setting": "second compound 31.6 µM, first compound 0.3 µM", "value": 1.86, "unit": "%"}, {"measurement": "viability, T/C", "setting": "second compound 31.6 µM, first compound 0.949 µM", "value": 2, "unit": "%"}, {"measurement": "viability, T/C", "setting": "second compound 31.6 µM, first compound 3 µM", "value": 1.4, "unit": "%"}, {"measurement": "viability, T/C", "setting": "second compound 100 µM, first compound 0.00949 µM", "value": 2.64, "unit": "%"}, {"measurement": "viability, T/C", "setting": "second compound 100 µM, first compound 0.03 µM", "value": 2.03, "unit": "%"}, {"measurement": "viability, T/C", "setting": "second compound 100 µM, first compound 0.0949 µM", "value": 2.06, "unit": "%"}, {"measurement": "viability, T/C", "setting": "second compound 100 µM, first compound 0.3 µM", "value": 2.04, "unit": "%"}, {"measurement": "viability, T/C", "setting": "second compound 100 µM, first compound 0.949 µM", "value": 1.62, "unit": "%"}, {"measurement": "viability, T/C", "setting": "second compound 100 µM, first compound 3 µM", "value": 1.71, "unit": "%"}]}]}
